Tests used:
Format in all cases: cell-based, mouse
[1] = system: β-galactosidase in CMV-LacZ C2C12 myoblasts; experiment: CMV-LacZ secondary screen in C2C12 myoblasts (β-Gal stabilizing assay); details: for CMV-LACZ in Myoblasts (β-galactosidase activity relative to DMSO): CMV-LacZ C2C12 myoblasts; for CMV-LACZ in Myoblasts, value relative to DMSO: SU9516 analogs, C2C12 CMV-LacZ, N=2
Method in brief: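 First, C2C12 myoblasts were transfected with a linearized CMV-LACZ vector and clonal lines selected by FDG β-gal assay. Then cells were exposed to compounds at 0.5, 1, 5, 10, 20 and 40 μM in 96-well format, two replicates each, and β-gal measured.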

[2] = system: β-galactosidase in CMV-LacZ C2C12 myotubes; experiment: CMV-LacZ secondary screen in C2C12 myotubes (β-Gal stabilizing assay); details: for CMV-LACZ in Myotubes, signal relative to DMSO: C2C12 CMV-LacZ myotubes, fold relative to DMSO; for CMV-LACZ in Myotubes, value relative to DMSO: SU9516 analogs, C2C12 CMV-LacZ, N=2
Method in brief: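 β-Gal level was the read-out, measured in a clonal C2C12 line expressing LacZ from a CMV promoter. Dose-response curves used six concentrations, 0.5 μM up to 40 μM, with duplicate points.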

[3] = system: α7 integrin (LacZ reporter in α7+/LacZ myotubes); experiment: Myotube α7 integrin FDG assay (Burkin assay in myotubes, 96-well); details: for Burkin Assay in Myotubes, value relative to DMSO: SU9516 analogs, 96-well, N=3-6
[4] = system: α7 integrin (LacZ reporter in α7βgal+/− myoblasts); experiment: Myoblast α7+/LacZ integrin FDG assay (Burkin assay in myoblasts, 96-well); details: 96-well; for Burkin Assay in Myoblasts, signal relative to DMSO: α7+/LacZ myoblasts; for Burkin Assay in Myoblasts, value relative to DMSO: SU9516 analogs, N=3-6

SMILES: COc1ccc(OC)c(S(=O)(=O)Nc2c(NC3CCCCC3)c3ccccc3oc2=O)c1 [MLS001095705-01]
- CMV-LACZ in Myoblasts (β-galactosidase activity relative to DMSO) ([1]; 0.5 uM): 1.2060
- CMV-LACZ in Myoblasts (β-galactosidase activity relative to DMSO) ([1]; 1 uM): 1.2293
- CMV-LACZ in Myoblasts (β-galactosidase activity relative to DMSO) ([1]; 5 uM): 0.6476
- CMV-LACZ in Myoblasts (β-galactosidase activity relative to DMSO) ([1]; 10 uM): 0.7229
- CMV-LACZ in Myoblasts (β-galactosidase activity relative to DMSO) ([1]; 20 uM): 1.1400
- CMV-LACZ in Myoblasts (β-galactosidase activity relative to DMSO) ([1]; 40 uM): 1.1723
- CMV-LACZ in Myotubes, signal relative to DMSO ([2]; 0.5 uM): 0.9486
- CMV-LACZ in Myotubes, signal relative to DMSO ([2]; 1 uM): 0.9933
- CMV-LACZ in Myotubes, signal relative to DMSO ([2]; 5 uM): 1.1898
- CMV-LACZ in Myotubes, signal relative to DMSO ([2]; 10 uM): 1.3164
- CMV-LACZ in Myotubes, signal relative to DMSO ([2]; 20 uM): 1.2020
- CMV-LACZ in Myotubes, signal relative to DMSO ([2]; 40 uM): 1.0800
- Burkin Assay in Myotubes, α7 integrin LacZ reporter signal relative to DMSO ([3]; 0.5 uM): 0.9916
- Burkin Assay in Myotubes, α7 integrin LacZ reporter signal relative to DMSO ([3]; 1 uM): 0.9463
- Burkin Assay in Myotubes, α7 integrin LacZ reporter signal relative to DMSO ([3]; 5 uM): 1.073
- Burkin Assay in Myotubes, α7 integrin LacZ reporter signal relative to DMSO ([3]; 10 uM): 0.8798
- Burkin Assay in Myotubes, α7 integrin LacZ reporter signal relative to DMSO ([3]; 20 uM): 0.9411
- Burkin Assay in Myotubes, α7 integrin LacZ reporter signal relative to DMSO ([3]; 40 uM): 0.7937
- Burkin Assay in Myoblasts, signal relative to DMSO ([4]; 0.5 uM): 0.7873
- Burkin Assay in Myoblasts, signal relative to DMSO ([4]; 1 uM): 0.8788
- Burkin Assay in Myoblasts, signal relative to DMSO ([4]; 5 uM): 1.295
- Burkin Assay in Myoblasts, signal relative to DMSO ([4]; 10 uM): 0.969
- Burkin Assay in Myoblasts, signal relative to DMSO ([4]; 20 uM): 0.7917
- Burkin Assay in Myoblasts, signal relative to DMSO ([4]; 40 uM): 0.7284

SMILES: O=c1c2cc(-c3ccccc3)sc2nc2n1N=C(c1ccccc1)CS2 [MLS000858981-01]
- CMV-LACZ in Myoblasts (β-galactosidase activity relative to DMSO) ([1]; 0.5 uM): 0.9229
- CMV-LACZ in Myoblasts (β-galactosidase activity relative to DMSO) ([1]; 1 uM): 0.9696
- CMV-LACZ in Myoblasts (β-galactosidase activity relative to DMSO) ([1]; 5 uM): 1.1687
- CMV-LACZ in Myoblasts (β-galactosidase activity relative to DMSO) ([1]; 10 uM): 0.9009
- CMV-LACZ in Myoblasts (β-galactosidase activity relative to DMSO) ([1]; 20 uM): 0.9985
- CMV-LACZ in Myoblasts (β-galactosidase activity relative to DMSO) ([1]; 40 uM): 0.9696
- CMV-LACZ in Myotubes, signal relative to DMSO ([2]; 0.5 uM): 1.0257
- CMV-LACZ in Myotubes, signal relative to DMSO ([2]; 1 uM): 0.8419
- CMV-LACZ in Myotubes, signal relative to DMSO ([2]; 5 uM): 1.0786
- CMV-LACZ in Myotubes, signal relative to DMSO ([2]; 10 uM): 0.9781
- CMV-LACZ in Myotubes, signal relative to DMSO ([2]; 20 uM): 1.0421
- CMV-LACZ in Myotubes, signal relative to DMSO ([2]; 40 uM): 1.0000
- Burkin Assay in Myotubes, α7 integrin LacZ reporter signal relative to DMSO ([3]; 0.5 uM): 1.027
- Burkin Assay in Myotubes, α7 integrin LacZ reporter signal relative to DMSO ([3]; 1 uM): 0.8837
- Burkin Assay in Myotubes, α7 integrin LacZ reporter signal relative to DMSO ([3]; 5 uM): 1.055
- Burkin Assay in Myotubes, α7 integrin LacZ reporter signal relative to DMSO ([3]; 10 uM): 0.8922
- Burkin Assay in Myotubes, α7 integrin LacZ reporter signal relative to DMSO ([3]; 20 uM): 0.8526
- Burkin Assay in Myotubes, α7 integrin LacZ reporter signal relative to DMSO ([3]; 40 uM): 0.8173
- Burkin Assay in Myoblasts, signal relative to DMSO ([4]; 0.5 uM): 0.953
- Burkin Assay in Myoblasts, signal relative to DMSO ([4]; 1 uM): 0.999
- Burkin Assay in Myoblasts, signal relative to DMSO ([4]; 5 uM): 1.186
- Burkin Assay in Myoblasts, signal relative to DMSO ([4]; 10 uM): 1.01
- Burkin Assay in Myoblasts, signal relative to DMSO ([4]; 20 uM): 1.0113
- Burkin Assay in Myoblasts, signal relative to DMSO ([4]; 40 uM): 1.005

SMILES: Cc1[nH]c(/C=C2\C(=O)Nc3ccc(S(=O)(=O)Cc4c(Cl)cccc4Cl)cc32)c(C)c1C(=O)C1CCCN1CN1CCCC1 (stereo not drawn) [NCGC00242500-01]
- CMV-LACZ in Myoblasts, value relative to DMSO ([1]; 0.5 uM): 1.1021
- CMV-LACZ in Myoblasts, value relative to DMSO ([1]; 1 uM): 1.1446
- CMV-LACZ in Myoblasts, value relative to DMSO ([1]; 5 uM): 1.6977
- CMV-LACZ in Myoblasts, value relative to DMSO ([1]; 10 uM): 2.4909
- CMV-LACZ in Myoblasts, value relative to DMSO ([1]; 20 uM): 0.3570
- CMV-LACZ in Myoblasts, value relative to DMSO ([1]; 40 uM): 0.4237
- CMV-LACZ in Myotubes, value relative to DMSO ([2]; 0.5 uM): 1.2482
- CMV-LACZ in Myotubes, value relative to DMSO ([2]; 1 uM): 1.9682
- CMV-LACZ in Myotubes, value relative to DMSO ([2]; 5 uM): 2.2432
- CMV-LACZ in Myotubes, value relative to DMSO ([2]; 10 uM): 3.3039
- CMV-LACZ in Myotubes, value relative to DMSO ([2]; 20 uM): 5.2430
- CMV-LACZ in Myotubes, value relative to DMSO ([2]; 40 uM): 7.0800
- Burkin Assay in Myotubes, value relative to DMSO ([3]; 0.5 uM): 0.9974
- Burkin Assay in Myotubes, value relative to DMSO ([3]; 1 uM): 0.9391
- Burkin Assay in Myotubes, value relative to DMSO ([3]; 5 uM): 0.9422
- Burkin Assay in Myotubes, value relative to DMSO ([3]; 10 uM): 0.7534
- Burkin Assay in Myotubes, value relative to DMSO ([3]; 20 uM): 0.652
- Burkin Assay in Myotubes, value relative to DMSO ([3]; 40 uM): 0.2132
- Burkin Assay in Myoblasts, value relative to DMSO ([4]; 0.5 uM): 1.052
- Burkin Assay in Myoblasts, value relative to DMSO ([4]; 1 uM): 1.076
- Burkin Assay in Myoblasts, value relative to DMSO ([4]; 5 uM): 0.8704
- Burkin Assay in Myoblasts, value relative to DMSO ([4]; 10 uM): 0.5879
- Burkin Assay in Myoblasts, value relative to DMSO ([4]; 20 uM): 0.01841
- Burkin Assay in Myoblasts, value relative to DMSO ([4]; 40 uM): 0.01945
